Source: PubChem BioAssay (NCI)
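Assay format: 96-well plates, 48-hour exposure. TGI denotes the concentration required for complete inhibition of growth.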

Experiments:
Assay in all cases: inhibition of tumour cell growth, NCI panel, 48 h
[1] = test system: CAKI-1 renal
[2] = test system: BT-549 breast
[3] = test system: HCT-15 colon
[4] = test system: TK-10 renal
[5] = test system: MDA-MB-231 breast
[6] = test system: HS 578T breast
[7] = test system: SNB-19 CNS
[8] = test system: U251 CNS
[9] = test system: A498 renal
[10] = test system: SK-MEL-5 melanoma
[11] = test system: RPMI-8226 leukemia
[12] = test system: NCI-H226 lung
[13] = test system: DU-145 prostate
[14] = test system: OVCAR-8 ovarian
[15] = test system: SF-268 CNS
[16] = test system: MDA-MB-435
[17] = test system: EKVX NSCLC
[18] = test system: SW-620 colon
[19] = test system: HCT-116 colon
[20] = test system: SN12C renal

| Structure (SMILES) | TGI [1] [µM] | TGI [2] [µM] | TGI [3] [µM] | TGI [4] [µM] | TGI [5] [µM] | TGI [6] [µM] | TGI [7] [µM] | TGI [8] [µM] | TGI [9] [µM] | TGI [10] [µM] | TGI [11] [µM] | TGI [12] [µM] | TGI [13] [µM] | TGI [14] [µM] | TGI [15] [µM] | TGI [16] [µM] | TGI [17] [µM] | TGI [18] [µM] | TGI [19] [µM] | TGI [20] [µM] |
| --- | --- | --- | --- | --- | --- | --- | --- | --- | --- | --- | --- | --- | --- | --- | --- | --- | --- | --- | --- | --- |
| Cc1c2c(OCC(O)CN3CCN(c4ccccc4)CC3)nn(C)c(=O)c2c(C)n1-c1ccccc1 (centres undefined) | > 100 | 47.6 | 43.5 | > 100 | 69.6 | 65.9 | > 100 | 30.2 | 58.6 | 30.3 | 52.5 | 54.5 | > 100 | > 100 | 73.5 | 91.8 | > 100 | 98.8 | 31.3 | 36.5 |
| O=C1C=CC(=O)c2c1ccc1c3ccccc3n(-c3ccccc3)c21 | 19.6 | 27 | 10.7 | 17.8 | 15.9 | 60.5 | 43.7 | 43.7 | 35.2 | 31.2 | 4.59 | 40 | 37.2 | 11 | 40.9 | 30.3 | 28.7 | 7.31 | 7.03 | 26.6 |
| O=C(CCCN1CCC2(CC1)CC(=O)N(N1CCOCC1)C2=O)c1ccc(F)cc1 | > 100 | > 100 | > 100 | > 100 | > 100 | > 100 | > 100 | > 100 | > 100 | > 100 | > 100 | > 100 | > 100 | > 100 | > 100 | > 100 |  | > 100 | > 100 | > 100 |
| CC1=NC2c3c(-c4ccc(Cl)cc4)cn(-c4ccc(C)cc4)c3N=CN2N1 (centres undefined) | > 100 | > 100 | > 100 | > 100 | > 100 | 38.4 | > 100 | > 100 | > 100 | > 100 |  | > 100 | > 100 | > 100 | > 100 | > 100 | > 100 | > 100 | > 100 | > 100 |
| O=C(/C=C/c1ccc(C(F)(F)F)cc1)c1c([O-])on[n+]1-c1ccccc1 | 0.879 | 3.04 | 3.12 | 3.07 | 20 | > 32.3 | 15.5 |  | 14.8 | 12.7 |  | > 29.9 | 7.17 | 5.38 | > 26.2 |  | 5.83 |  | 3.85 | 7.71 |
| O=c1/c(=C/c2ccc([N+](=O)[O-])o2)sc2n1[C@@H](c1ccc(Cl)cc1)C=C(c1cc(F)c(Cl)cc1Cl)N=2 | > 100 | 28.7 | 26.7 | 36.2 | 18.5 | > 100 | 33.6 | 21.7 | > 100 | 28.8 | 25.9 | 32.4 | 39.9 | 40.8 | 33.4 | 36.2 |  | > 100 | 18.3 | 19.5 |
| Cc1ccc(C(=O)Cn2c(C(=O)/C=C/c3cccs3)nc3ccccc32)cc1 |  | > 100 | > 100 | > 100 | > 100 | 72.6 | > 100 | > 100 | > 100 | > 100 | > 100 | > 100 | > 100 |  | > 100 | > 100 |  | > 100 | > 100 | > 100 |
| COc1ccc(OC)c(C2CCc3c(cnc4nc(N)nc(N)c34)C2)c1 (centres undefined) | 29.1 | 40.7 | 28.4 | 28.7 | 29.2 | 53 | 21.5 | 18.7 | 27.4 | 33.4 |  | 54.8 | 28.4 | 21.6 | 18.9 | 17.1 | 24.2 | 37.2 | 14.2 | 22 |
| CN(C)CCNC(=O)c1cccc2c(NC(CS)C(=O)O)c3ccccc3[n+](C)c12 (centres undefined) |  | 98.2 | > 100 | > 100 | > 100 | > 100 | > 100 | > 100 | > 100 | > 100 | > 100 |  | > 100 | > 100 | 80.8 | > 100 | > 100 | > 100 | > 100 | > 100 |
| Clc1ccc(C(Cc2cccc(Cl)c2)c2c(Cl)nc(N3CCNCC3)nc2Cl)cc1 (centres undefined) | 24.4 | 39.1 | 26.4 | 30.4 | 26.4 | 38.8 | 30.5 | 30 | 28.5 | 29.7 | 52.2 | > 100 | 33.9 | 38.4 |  | 30.3 | > 100 | 30.1 | 25.9 |  |
| Cc1cc(C)c(O)c(CN2CCN(C(C)C)CCN(C(C)C)CC2)c1 | > 100 | 54 | > 100 | > 100 | > 100 | > 100 | > 100 | > 100 | > 100 |  | > 100 | > 100 | > 100 | 94.9 | > 100 | 64.4 | > 100 | > 100 | 85.2 | 83.9 |
| C=CCN1C[C@H](C)N([C@@H](c2ccc(C(=O)N3CCCCC3)cc2)c2cccc(OC)c2)C[C@H]1C | > 100 | > 100 | > 100 | > 100 | > 100 | > 100 | > 100 | > 100 | > 100 | 33.6 |  | > 100 | > 100 | > 100 | > 100 | > 100 | > 100 |  | > 100 | > 100 |
| COc1cc(/C=N\c2nc(-c3ccc(NS(=O)(=O)c4ccc(Cl)c(OC)c4)cc3)cs2)ccc1O | > 100 | 83 | > 100 |  |  | > 100 | > 100 |  |  | > 100 | 74.2 | > 100 | > 100 | > 100 | > 100 | > 100 | > 100 | > 100 | > 100 | > 100 |
| CC(=O)Oc1ccc2cc(Oc3ccc(Cl)c(Cl)c3)c(=O)oc2c1 | 58.7 | 34.4 | 53.8 | 79.2 | > 100 | > 100 | > 100 | 41.5 | 65.8 | 35.5 | > 100 | 82.9 | > 100 | 69.5 | > 100 |  | 80.8 | > 100 | 39.9 | 54.1 |
| COc1ccc(-c2cc(-c3ccc(O)cc3O)c(C#N)c(=O)[nH]2)cc1 | 64.1 | 55.9 | > 100 | > 100 | 36.8 | 48.1 | 53.3 | 41 |  | 34.6 | 43.5 | 55.3 | > 100 | 85.2 | 73.5 | 36.4 | 41.6 | 50.3 | 38.7 | 40.9 |
| O=C(OCc1ccc([N+](=O)[O-])cc1)N1c2ccccc2[C@@]23O[C@]24CCC[C@H]3C#C/C=C\C#C[C@H]14 | > 100 | > 100 | > 100 | > 100 | > 100 | > 100 | > 100 | > 100 | > 100 | > 100 |  | > 100 | > 100 | > 100 | > 100 | > 100 | > 100 | > 100 | > 100 | > 100 |
| O=c1[nH]nc(Cc2ccccc2)n1CCCl | > 100 | > 100 | > 100 |  | > 100 | > 100 | > 100 | > 100 | > 100 |  | > 100 | > 100 | > 100 | > 100 | > 100 | > 100 | > 100 | > 100 | > 100 | > 100 |
| CC1(C)C2CC(O)C1CCC2=O (centres undefined) | > 100 | > 100 | > 100 | > 100 | > 100 | > 100 | > 100 | > 100 | > 100 | > 100 | > 100 | > 100 | > 100 | > 100 | > 100 | > 100 |  |  | > 100 | > 100 |
| O=C(CCCN1CCC(Nc2ccccc2)(c2nnnn2C2CCCCC2)CC1)c1ccc(F)cc1 |  | 20.4 | > 100 | 26.1 | 24.2 | 29.2 | 21.4 | 18 |  | 3 | 25.1 | 36.5 | 15.5 | 68.3 | 9.25 | 19.4 | 9.53 | > 100 | 16.4 | 41 |
| Cc1ccc([N+](=O)[O-])cc1S(=O)(=O)Nc1ccc(C2=NOC(c3cccs3)C2)cc1 (centres undefined) | 70.4 | 41 | 28.5 | 50.3 | > 100 | 83 | 53.1 |  | 36.7 | 22.5 | 94.5 | > 100 | 52.7 | 69.9 | 99.2 | 10.4 | 65 | 48.4 | 28.1 | 53.3 |
| CC(=O)OCC1OC(n2c3c(cc(C#N)c2=S)CCC3)C(OC(C)=O)C(OC(C)=O)C1OC(C)=O (centres undefined) | > 100 | > 100 | > 100 | > 100 | > 100 | > 100 | > 100 | > 100 | > 100 | > 100 | > 100 | > 100 | > 100 | > 100 | > 100 | > 100 |  | > 100 | > 100 | > 100 |
| C[C@]12CC[C@H]3[C@@H](CC=C4C[C@@H](O)CC[C@@]43C)[C@@H]1C/C(=C/c1ccccc1)[C@@H]2O | > 58.9 | 72.4 | > 100 | > 53.3 | > 76.9 | 98 | > 56.5 | > 50.5 | 35.8 | > 100 | > 100 | 66.1 | > 64.2 | 52.1 | 89.2 | > 83.4 | > 70 | > 100 | > 45.3 |  |
| N#Cc1ccc(N2CCOCC2)cc1 | > 100 | > 100 | > 100 | > 100 | > 100 | > 100 | > 100 | > 100 | > 100 | > 100 |  |  | > 100 | > 100 | > 100 | > 100 | > 100 | > 100 | > 100 | > 100 |
| CCN(CC)C1CCC(C2c3cc4c(cc3OC(N3CCOCC3)C2C)OCO4)CC1 (centres undefined) | > 100 | 84.1 | > 100 | > 100 |  | > 72.1 | > 100 | > 100 | 60.7 | > 55.7 | > 55.5 |  | > 100 | > 100 | > 100 | > 100 | > 100 | > 100 | > 100 | > 100 |
| CCOC(=O)C1(N)CCc2[nH][nH]c(=O)c2C1 (centres undefined) | > 100 | > 100 | > 100 | > 100 | > 100 | > 100 | > 100 | > 100 | > 100 | > 100 | > 100 | > 100 |  | > 100 |  | > 100 | > 100 | > 100 | > 100 |  |
